Laboratory results as given in patent US9757426B2, “Peptide additives for enhancing acceptance and ingestion of edibles by rodents and uses thereof” (priority 2013, dated 2017).
No end group written: not given here.

Key:
Type in all cases: in vivo
[1] = tested on: mice; assay: Concentration/response functions, preference for warfarin-containing food; conditions: both foods contain 0.025% warfarin, +/- SEM
Text: Concentration/response functions were studies for uroguanylin. […] A preference ratio of 0.5 indicates no preference.
Concentration/response functions were also studied for guanylin. […] A preference ratio of 0.5 indicates no preference.

[2] = tested on: C57BL/6J mice; assay: Preference testing after uroguanylin exposure (B6 mice); conditions: mean ± s.e.m.
Text: Food preference testing—Food preference assays were modified from those used previously for testing the social transmission of food preference in rats and mice (Galef et al. 1983; Posadas-Andrews and Roper 1983; Valsecchi and Galef 1989; Crawley 2007; Ryan et al. 2008; Munger et al. 2010). In all experiments, subject mice were pair-housed for four days in standard cages with the food container placed on the cage floor. Mice were fed a crushed rodent diet (2018SX, Harlan) to habituate them to powdered food. The amount of food was restricted to 2 g/mouse/day to facilitate feeding during the food preference tests. […] All data were expressed as mean ±S.E.M. Differences were accepted as significant if p<0.05 (see below for statistical tests).
B6 mice were randomly assigned into one of three groups (n=8 each). On the test day, each mouse was moved to individual cages and presented with a petri dish containing a drop of saline (150 μl) with added flavor powder (2% cocoa or 1% cinnamon) with or without uroguanylin (0, 50 nM or 50 μM). After 1 hr exposure, mice were moved to clean cages. After 3 hrs, mice were presented with two food trays (3.5 cm petri dishes mounted to a weighted plastic stage), one of which contained cocoa-odored food (3.5 g) and the other cinnamon-odored food (3.5 g). Subject mice were allowed to feed for 1 hr, at which point the food trays were removed and weighed to calculate the amount of each food consumed. […] Significance between stimulus conditions was determined by one-way ANOVA.
The chemostimulus CS2, when paired with a food odor, is sufficient to increase the attractiveness of foods and to promote the acquisition of food preferences in mice (Bean et al. 1988; Munger et al. 2010). Whether uroguanylin could serve a similar role was tested. Individual observer mice were allowed to interact with a petri dish containing an odor (2% cocoa or 1% cinnamon) with or without uroguanylin (50 nM or 50 μM) in saline. Each mouse was subsequently presented with a choice of two odored chows (cocoa vs. cinnamon).

[3] = tested on: mice; assay: Maintenance over time of uroguanylin-dependent preferences (warfarin-containing foods, retests); conditions: 50 nM uroguanylin
Description: Mice form preferences to food and feeding sites when food odors are paired with the social cues uroguanylin. It was determined whether mice will maintain this preference and return to the learned food odor even after the food has been tainted with the commonly used rodenticide warfarin. […] A preference ratio of 0.5 indicates no preference. […] These same mice were retested one and four days after the initial day of testing. […] By contrast, there was no effect of the test day on the preference ratio.

[4] = 1 nM peptide + food odor in saline for 1 hr
[5] = 50 nM peptide + food odor in saline for 1 hr

| Substance | Preference ratio (PR = food with demonstrated odor (g) consumed/total food (g) consumed) [1, 4] | Preference ratio (PR = food with demonstrated odor (g) consumed/total food (g) consumed) [1, 5] | Amount of food consumed, Total food ([2]; Odor + UG (50 nM)) | Amount of food consumed, w/demonstrated odor ([2]; Odor + UG (50 nM)) | Amount of food consumed, w/novel odor ([2]; Odor + UG (50 nM)) | Amount of food consumed, Total food ([2]; Odor + UG (50 μM)) | Amount of food consumed, w/demonstrated odor ([2]; Odor + UG (50 μM)) | Amount of food consumed, w/novel odor ([2]; Odor + UG (50 μM)) | Preference ratio (PR) ([3]; initial day of testing, both foods contain 0.025% warfarin) | Preference ratio (PR) ([3]; retest Day 2, foods contain 0.025% warfarin) | Preference ratio (PR) ([3]; retest Day 5, foods contain 0.025% warfarin) |
| --- | --- | --- | --- | --- | --- | --- | --- | --- | --- | --- | --- |
| guanylin (PGTCEICAYAACTGC; ends and bridges not checked; cysteine pairing not given here; UniProt Q02747 101-115, looked up) [guanylin family peptide, naturally-occurring peptide hormone produced in the intestines] | 0.75 +/−0.04 | 0.72 +/−0.04 |  |  |  |  |  |  |  |  |  |
| uroguanylin (NDDCELCVNVACTGCL; ends and bridges not checked; cysteine pairing not given here; UniProt Q16661 97-112, looked up) [guanylin family peptide, naturally-occurring peptide hormone produced in the intestines; GC-D agonist] | 0.65 +/−0.05 | 0.76 +/−0.04 | 1.42 ± 0.19 g | 1.08 ± 0.14 g | 0.34 ± 0.08 g | 1.50 ± 0.26 g | 1.15 ± 0.14 g | 0.35 ± 0.12 g | 0.76+/−0.04 | 0.72 +/−0.06 | 0.74 +/−0.08 |
